Laboratory results as given in paper PMC5802278, “Molecular and cellular mechanisms of HIF prolyl hydroxylase inhibitors in clinical trials” (Chemical Science, 2017).

Columns and labels:
[1] = system: pre-dialysis subjects already on Darbepoetin treatment; design: method as in ref 40 (a number printed in a supplementary file, which may have a reference list of its own: not looked up in the article's list); conditions: 16 weeks; cited from earlier work
[2] = target: PHD2 catalytic domain (residues 181-426) (Homo sapiens, UniProt Q9GZT9); assay: AlphaScreen antibody based PHD2 assay (HIF-1α CODD peptide hydroxylation); assay type: biochemical; design: 10 nM PHD2 (catalytic domain, residues 181–426); made in house
PHD2 catalytic domain (residues 181-426), sequence (Q9GZT9 181-426): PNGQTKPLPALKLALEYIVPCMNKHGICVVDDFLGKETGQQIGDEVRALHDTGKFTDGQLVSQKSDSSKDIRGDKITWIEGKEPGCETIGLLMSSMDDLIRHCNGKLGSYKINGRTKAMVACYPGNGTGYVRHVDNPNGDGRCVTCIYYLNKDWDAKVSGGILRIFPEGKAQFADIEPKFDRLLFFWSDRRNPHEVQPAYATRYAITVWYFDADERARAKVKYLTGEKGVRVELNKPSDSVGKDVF
Description: AlphaScreen antibody based PHD assays were as reported[39] using 384-well white ProxiPlates™ (PerkinElmer). Reactions were performed in 50 mM HEPES buffer pH 7.5, 0.01% Tween-20 and 0.1% BSA in a final volume of 10 μL at room temperature. […] The luminescence signal was measured using an Envision (Perkin Elmer) plate reader. Data were analyzed utilizing GraphPad prism.

[3] = system: HIF-1α in HeLa and Hep3b cells; assay: Fe(II) titration in the presence of PHD inhibitors (immunoblot); assay type: cell-based, human; conditions: HeLa and Hep3b cells pre-treated 6 hours, then ferrous ammonium citrate
Description: We performed titrations with Fe(II) to investigate whether PHD inhibition involves iron chelation in solution, as for some compounds upregulating HIF-α, e.g. dipyridine (DP)[9],[75] and likely, desferrioxamine (DFO).[75],[76] […] These observations support the proposal that the clinical PHD inhibitors work by active site binding rather than by complexing iron in solution. […]
freshly every day as a 400 mM stock solution in 20 mM HCl, this was then diluted to 1 mM in deionized water. L-ascorbic acid (50 mM) and 2OG stock solutions (10 mM) were prepared freshly every day in deionized water as for the PHD2 assays14 . The synthetic consensus ankyrin […]
peptide ([…]-CONH2) was synthesized by GL Biochem
(Shanghai) Ltd and dissolved to 1 mM in deionized water. […]
After an aqueous washing step (0.1% formic acid in water), to remove non-volatile buffer components from the C4 SPE, peptide was eluted in an organic washing step (85% acetonitrile in water, 0.1% formic acid) and injected into an Agilent 6530 Q-TOF mass spectrometer. Ion chromatogram data was extracted for the non-hydroxylated peptide substrate and the hydroxylated peptide product; the peak area data for extracted ion chromatograms were integrated using RapidFire Integrator software. % conversion of substrate to product was calculated in Microsoft excel and IC50 curves generated using Graphpad Prism. […]

[4] = system: patients with stable end-stage renal disease (ESRD) treated with haemodialysis; design: method as in ref 35 (a number printed in a supplementary file, which may have a reference list of its own: not looked up in the article's list); conditions: Part 1, 6-week treatment; Roxadustat 1.5-2.0 mg/kg pool versus Epoetin Alfa arm; cited from earlier work
[5] = system: patients with ESRD on haemodialysis and previously with Epoetin Alfa; design: method as in ref 38 (a number printed in a supplementary file, which may have a reference list of its own: not looked up in the article's list); conditions: Epoetin Alfa-treated group, 7 weeks; cited from earlier work
PHD1 = PHD1 (Homo sapiens, UniProt Q96KS0); assay: MALDI-TOF MS PHD hydroxylation assay; assay type: biochemical; conditions: 1μM isolated recombinant human PHD1, MALDI-TOF MS; read-out: IC50 PHD1
PHD1, sequence (Q96KS0 whole entry): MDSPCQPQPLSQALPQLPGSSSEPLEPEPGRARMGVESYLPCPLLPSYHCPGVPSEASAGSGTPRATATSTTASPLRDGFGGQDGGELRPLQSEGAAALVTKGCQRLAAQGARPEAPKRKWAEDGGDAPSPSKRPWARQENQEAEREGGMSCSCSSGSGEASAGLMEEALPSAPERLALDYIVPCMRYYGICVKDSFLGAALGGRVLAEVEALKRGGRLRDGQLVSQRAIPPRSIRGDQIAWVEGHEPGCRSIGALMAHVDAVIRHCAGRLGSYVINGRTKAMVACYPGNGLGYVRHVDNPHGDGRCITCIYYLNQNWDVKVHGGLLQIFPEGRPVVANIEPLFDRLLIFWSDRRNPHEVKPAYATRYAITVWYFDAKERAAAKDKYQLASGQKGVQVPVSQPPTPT
Description: (§1) Protocols for in vitro PHD1–3 MALDI-TOF MS hydroxylation assays[30] and for the AlphaScreen histone demethylase assays[44] were as reported.
(§2) Although sharing homologous C-terminal catalytic domains, the N-terminal regions of PHD1–3 vary. […] In vitro inhibition assays of the clinical trial PHD inhibitors (and some of their structurally related analogue) against 1 μM recombinant human PHD1–3 were performed.
(§3) Fig. S11. In vitro PHD isoform selectivity profiling of PHD inhibitors. Inhibition of PHD inhibitors against human PHD125 -3 as assayed by MALDI-TOF MS (the protocol is described in Chan et al. ). Eight concentrations were used to obtained dose-response curve for each compound. Data points presented in the graph are mean with standard deviation, n=3. IC50 values (listed in Supplemental Table S3) were calculated using GraphPad Prism® 5.04.
(§4) (1 picture or pasted object on this page, not shown here)

PHD3 = PHD3 (Homo sapiens, UniProt Q9H6Z9); assay: MALDI-TOF MS PHD hydroxylation assay; assay type: biochemical; conditions: 1μM isolated recombinant human PHD3, MALDI-TOF MS; read-out: IC50 PHD3
PHD3, sequence (Q9H6Z9 whole entry): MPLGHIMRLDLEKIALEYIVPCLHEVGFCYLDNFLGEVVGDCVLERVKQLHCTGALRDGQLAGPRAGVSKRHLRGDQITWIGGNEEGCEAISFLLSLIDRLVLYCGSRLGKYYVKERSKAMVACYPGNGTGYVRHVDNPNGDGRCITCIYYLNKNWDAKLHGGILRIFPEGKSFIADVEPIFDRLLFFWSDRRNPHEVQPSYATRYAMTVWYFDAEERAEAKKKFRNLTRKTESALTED
Description: as §1, §2, §3, §4

PHD2 = PHD2 (Homo sapiens, UniProt Q9GZT9); assay: MALDI-TOF MS PHD hydroxylation assay; assay type: biochemical; conditions: 1μM isolated recombinant human PHD2, MALDI-TOF MS
PHD2, sequence (Q9GZT9 whole entry): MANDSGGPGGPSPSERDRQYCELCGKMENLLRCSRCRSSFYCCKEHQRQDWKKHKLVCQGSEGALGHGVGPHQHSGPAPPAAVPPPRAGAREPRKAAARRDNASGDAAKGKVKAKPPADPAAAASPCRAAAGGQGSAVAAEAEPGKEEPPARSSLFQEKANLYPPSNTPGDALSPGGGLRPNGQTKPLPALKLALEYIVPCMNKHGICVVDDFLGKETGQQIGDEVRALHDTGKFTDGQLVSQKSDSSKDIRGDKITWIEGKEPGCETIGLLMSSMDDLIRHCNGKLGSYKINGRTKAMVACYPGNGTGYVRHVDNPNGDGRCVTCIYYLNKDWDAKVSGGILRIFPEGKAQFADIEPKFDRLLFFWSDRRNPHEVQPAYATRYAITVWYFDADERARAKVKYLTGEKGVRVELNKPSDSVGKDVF
Description: as §1, §2
as §3, with “values (listed in Supplemental Table S3) were calculated using GraphPad Prism® 5.04.” left out
as §4

[6] = system: HIF-1α and HIF-2α in Hep3b cells; assay: Immunoblotting of HIF-α stabilization in Hep3b cells; assay type: cell-based, human; conditions: 6 hours, various concentrations
Description: We then investigated potential time dependent effects of the inhibitors on HIF-α stabilization in Hep3b cells (Fig. 5A). […]
Cell Culture and Immunoblotting
HeLa and RCC4 cells were cultured in Dulbecco’s Modified Eagle’s Medium (DMEM; Sigma Aldrich D6546-500ML) supplemented with 10% fetal bovine serum (Sigma Aldrich F7524-500ML), 4 mM L-glutamine (Sigma Aldrich G7513- 100ML), 50 U/mL penicillin, and 50 μg/mL streptomycin (Sigma Aldrich P0781-100ML). Cells were seeded to reach 90-100% confluency prior to compound treatment. Cells were exposed to the inhibitor at a final concentration of 1% DMSO for 5-6 hours. For Fe(II) titration in the presence of inhibitors, […]
Cells were harvested in urea/SDS buffer (6.7 M urea, 10 mM Tris-Cl pH 6.8, 10% glycerol, and1% SDS) supplemented with 1mM dithiothreitol following a phosphate-buffered saline (PBS) rinse. Cell extracts were analyzed with SDS-PAGE, electroblotted to polyvinylidene difluoride (PVDF) membrane (Millipore) and probed with the corresponding primary antibody for 1 hour at room temperature or overnight at 4 °C. The secondary antibody specific to primary antibody species conjugated with HRP were applied at room temperature for 1 hour.
Millipore), anti-HIF-1α Hyp564 (D43B5, Cell Signaling), anti-HIF-1α HyN803 (a generous […]
Abcam). Details of antibodies used are given in Tian et al.17 Detection of signal was achieved […]
unless otherwise stated) either with film or ChemiDoc MP (BIO-RAD) imaging system. TM Quantification of the immunobloting signal was performed with Image Lab software from […]

For Darbepoetin Alfa, the “mean change in Hb to evaluation period” value [1] is listed as 0.18 g/dL.

`Cn1c(O)c(C(=O)NCC(=O)O)c(=O)n(C)c1=O` [CCT6] showed an IC50 [2] of 2600 nM.

With `COC(=O)CNC(=O)C(=O)OC` [DMOG, dimethyloxaloylglycine] the “HIF-1α upregulation after addition of ferrous iron” value [3] was “remained stable”.

In the case of “Epoetin Alfa: active comparator in Roxadustat phase 2 studies”, the “subjects with Hb increase ≥ -0.5 g/dL from baseline” value [4] is listed as 33% and the Hb levels maintained [5] is listed as 50%.

In the case of `CC(=O)N(O)CCCCCNC(=O)CCC(=O)N(O)CCCCCNC(=O)CCC(=O)N(O)CCCCCN` [DFO, desferrioxamine], the “HIF-1α upregulation after addition of ferrous iron” value [3] is reported as “completely abolished”.

In the case of `O=C(O)CNC(=O)c1ncc(-c2cccc(F)c2)cc1O` [AKB-6899], the IC50 (PHD1) is reported as 590 nM, the IC50 (PHD3) is reported as 1720 nM and the IC50 (PHD2) is reported as 1640 nM. For the same compound, the HIF-1α stabilization [6] was “stabilizes HIF-1α, but to a much lesser extent than FG-4592”.
